Results published in PMC6017830, “Furan- and Thiophene-2-Carbonyl Amino Acid Derivatives Activate Hypoxia-Inducible Factor via Inhibition of Factor Inhibiting Hypoxia-Inducible Factor-1” (Molecules : A Journal of Synthetic Chemistry and Natural …, 2018).
pIC50: −log10 of the molar value. “Also recorded” adds a separate entry of the source.

Test system: SKN:HRE-MLuc cells
Assay: MTS assay (cellular toxicity)
Format: cell-based, human
Details: not given
Source text: Next, we evaluated the activation of HIF by furan- and thiophene-2-carbonyl amino acid derivatives using the evaluation methods described above. Simultaneously, we investigated cellular toxicity for those derivatives with a 3-(4,5-dimethylthiazol-2-yl)-5-(3-carboxymethoxyphenyl)-2-(4-sulfophenyl)-2H-tetrazolium (MTS) assay. To indicate cellular membrane permeability, the partition coefficients, which are frequently represented by calculated logP (clogP) are listed in Table 1 and Table 2.
Cellular toxicity was measured using the CellTiter 96® Aqueous One Solution Cell Proliferation Assay kit (Promega, Madison, WI, USA). The cells were stimulated with each compound and treated with the CellTiter solution. After incubation for 3 h, the absorbance of the solutions at 492 nm was measured by Multiskan FC (Thermo Fisher Scientific, Waltham, MS, USA). As a negative control, wells with culture media were used. Wells treated with DMSO (0.1%) were used as a positive control. The IC50 values were determined using these controls.

| SMILES | Cellular toxicity in the MTS assays, result in words |
| --- | --- |
| COC(=O)[C@H](Cc1ccc(O)cc1)NC(=O)c1cc(-c2ccccc2)cs1 [Compound 30, (S)-Methyl (4-phenylthiophene-2-carbonyl)tyrosinate] | showed cellular toxicity |

Same assay, conditions: Homo sapiens; MTS assay

| SMILES | pIC50 |
| --- | --- |
| COC(=O)[C@H](Cc1ccccc1)NC(=O)c1ccc(C)o1 [Compound 7, (S)-Methyl (5-methylfuran-2-carbonyl)phenylalaninate] | < 4.00 |
| COC(=O)[C@@H](Cc1c[nH]c2ccccc12)NC(=O)c1cc(-c2ccccc2)cs1 [Compound 29, (R)-Methyl (4-phenylthiophene-2-carbonyl)tryptophanate] | < 4.00 |
| COC(=O)[C@H](Cc1ccc(O)cc1)NC(=O)c1cc(-c2ccccc2)cs1 [Compound 30, (S)-Methyl (4-phenylthiophene-2-carbonyl)tyrosinate] | 4.12 |
| COC(=O)[C@H](Cc1c[nH]c2ccccc12)NC(=O)c1cc(-c2ccccc2)cs1 [Compound 28, (S)-Methyl (4-phenylthiophene-2-carbonyl)tryptophanate] | < 4.00 |
| COC(=O)CNC(=O)c1ccc(-c2ccc(-c3ccccc3)cc2)s1 [Compound 31, Methyl (5-((1,1′-biphenyl)-4-yl)thiophene-2-carbonyl)glycinate] | < 4.00 |
| COC(=O)CNC(=O)c1cc(-c2ccccc2)cs1 [Compound 26, Methyl (4-phenylthiophene-2-carbonyl)glycinate] | < 4.00 |
| CCOC(=O)[C@H](Cc1ccccc1)NC(=O)c1cc(-c2ccccc2)cs1 [Compound 27, (S)-Ethyl (4-phenylthiophene-2-carbonyl)phenylalaninate] | < 4.00 |
| COC(=O)[C@H](Cc1c[nH]c2ccccc12)NC(=O)c1cc2ccccc2o1 [Compound 38, (S)-Methyl (benzofuran-2-carbonyl)tryptophanate] | < 4.00 |
| COC(=O)[C@H](Cc1c[nH]c2ccccc12)NC(=O)c1ccc(C)o1 [Compound 9, (S)-Methyl (5-methylfuran-2-carbonyl)tryptophanate] | < 4.00 |

Test system: HIF-HRE transcriptional activity in SKN:HRE-MLuc cells (reflects FIH-1 inhibition)
Assay: HIF activity under hypoxia, HRE-MLuc luciferase reporter assay
Format: cell-based, human
Details: 100 μM; normoxic or hypoxic (3% O2), control or FIH-1 siRNA transfectants, Figure 3c (A vs E, F, G, H)

| SMILES | HIF stabilization activity (HRE-MLuc reporter), result in words |
| --- | --- |
| COC(=O)CNC(=O)C(=O)OC [DMOG, dimethyloxalyl glycine, reference compound] | higher HIF stabilization activity |

Test system: CA9 mRNA in SK-N-BE(2)c cells
Assay: Quantitative RT-PCR of HIF target gene CA9
Format: cell-based, human
Details: 100 μM, 3% O2, SK-N-BE(2)c cells
Procedure: (§1) To confirm transactivation of HIF by our optimized compounds, the expression of HIF target genes was analyzed with quantitative polymerase chain reaction (PCR) in SK-N-BE(2)c cells. We attempted to analyze several HIF target genes including CA9, VEGF-α, EPO, and PHD3, under 3% O2 conditions.
(§2) Total RNA was extracted from cells using ISOGEN (Nippon Gene, Tokyo, Japan). cDNA syntheses were performed using random hexamer primers and SuperScript II Reverse Transcriptase (Thermo Fisher Scientific) following the manufacturer’s instructions. Quantitative reverse transcription polymerase-chain reaction (RT-PCR) analysis was performed as follows: amplification was done in an initial denaturing step at 96 °C for 2 min, followed by 35 cycles of PCR (96 °C for 1 min, 57 °C for 30 s, 72 °C for 30 s) using recombinant Taq polymerase (Takara, Otsu, Japan) with the respective primer pairs. For human carbonic anhydrase IX (CA9), 5′-CCTGGCTGCTGGTGACATCC-3′ and 5′-AAGGAAGTGGCATAATGAGC-3′. […] Data were analyzed using the comparative Ct method as means of relative quantification, and were normalized to an endogenous reference (β-actin) and relative to a calibrator (normalized Ct value obtained from cells treated with vehicle only). Data were expressed as 2^−ΔΔCt.

| SMILES | CA9 mRNA expression, result in words |
| --- | --- |
| COC(=O)[C@H](Cc1c[nH]c2ccccc12)NC(=O)c1ccc(C)o1 [Compound 9, (S)-Methyl (5-methylfuran-2-carbonyl)tryptophanate] | significantly elevated |

Test system: not given
Assay: not given
Details: not given

| melting point | SMILES |
| --- | --- |
| 145 to 149 °C | COC(=O)[C@@H](Cc1c[nH]c2ccccc12)NC(=O)c1cc(-c2ccccc2)cs1 [Compound 29, (R)-Methyl (4-phenylthiophene-2-carbonyl)tryptophanate] |
| 176 to 178 °C | COC(=O)[C@H](Cc1ccc(O)cc1)NC(=O)c1cc(-c2ccccc2)cs1 [Compound 30, (S)-Methyl (4-phenylthiophene-2-carbonyl)tyrosinate] |
| 150 to 152 °C | COC(=O)[C@H](Cc1c[nH]c2ccccc12)NC(=O)c1cc(-c2ccccc2)cs1 [Compound 28, (S)-Methyl (4-phenylthiophene-2-carbonyl)tryptophanate] |
| 183 to 185 °C | COC(=O)CNC(=O)c1ccc(-c2ccc(-c3ccccc3)cc2)s1 [Compound 31, Methyl (5-((1,1′-biphenyl)-4-yl)thiophene-2-carbonyl)glycinate] |
| 93 to 96 °C | COC(=O)CNC(=O)c1cc(-c2ccccc2)cs1 [Compound 26, Methyl (4-phenylthiophene-2-carbonyl)glycinate] |
| 94 to 96 °C | CCOC(=O)[C@H](Cc1ccccc1)NC(=O)c1cc(-c2ccccc2)cs1 [Compound 27, (S)-Ethyl (4-phenylthiophene-2-carbonyl)phenylalaninate] |

Test system: HIF-HRE transcriptional activity in SKN:HRE-MLuc cells (PHD inhibition)
Assay: HIF activity under normoxia, HRE-MLuc luciferase reporter assay
Format: cell-based, human
Details: normoxic conditions, 100 μM, 24 h
Source text: We next measured HIF transactivity of FIH-1 inhibitors under normoxic conditions to confirm whether these inhibitors stabilized HIF via inhibiting PHD. Under normoxic conditions, inhibition of PHD dramatically activated HRE reporter. In contrast, when PHD was inhibited under hypoxic conditions, the rate of activation of the HRE reporter was low because hypoxia already partially activated the HRE reporter. The compounds showing HIF activation under hypoxic conditions (compounds 7, 9–11, 15–18, 28, 30, and 38) were evaluated by the luciferase assays in SKN:HRE-MLuc cells under normoxic conditions (Figure 6).
SKN:HRE-MLuc (4 × 10^4) were incubated for 24 h on a 96 well culture plate. The medium was replaced with complete media and the tested compounds (100 μM). DMSO (0.1%) was used as a negative control, and DMOG (100 μM) was used as a positive control. The cells were incubated for 24 h under a humidified atmosphere of 5% CO2 at 37 °C. After incubation, the MLuc activity in culture media was measured with the method descried above.

| SMILES | HIF transactivation (HRE-MLuc reporter), result in words |
| --- | --- |
| COC(=O)[C@H](Cc1ccccc1)NC(=O)c1ccc(C)o1 [Compound 7, (S)-Methyl (5-methylfuran-2-carbonyl)phenylalaninate] | did not elicit any HIF transactivation |
| COC(=O)[C@H](Cc1ccc(O)cc1)NC(=O)c1cc(-c2ccccc2)cs1 [Compound 30, (S)-Methyl (4-phenylthiophene-2-carbonyl)tyrosinate] | did not elicit any HIF transactivation |
| Cc1nc(C(=O)NCC(=O)O)c(O)c2ccc(Oc3ccccc3)cc12 [FG4592, reference compound] | stabilized HIF compared with vehicle-treated cells; also recorded: showed significant HRE reporter activity |
| COC(=O)[C@H](Cc1c[nH]c2ccccc12)NC(=O)c1cc(-c2ccccc2)cs1 [Compound 28, (S)-Methyl (4-phenylthiophene-2-carbonyl)tryptophanate] | did not elicit any HIF transactivation |
| COC(=O)[C@H](Cc1c[nH]c2ccccc12)NC(=O)c1cc2ccccc2o1 [Compound 38, (S)-Methyl (benzofuran-2-carbonyl)tryptophanate] | did not elicit any HIF transactivation |

Test system: HIF-1α mRNA in SK-N-BE(2)c cells
Assay: Quantitative RT-PCR of HIF-1α mRNA
Format: cell-based, human
Details: 100 μM, 3% O2, SK-N-BE(2)c cells
Procedure: as §1, §2

| SMILES | HIF-1α mRNA level, result in words |
| --- | --- |
| COC(=O)CNC(=O)C(=O)OC [DMOG, dimethyloxalyl glycine, reference compound] | slightly suppressed |
| COC(=O)[C@H](Cc1c[nH]c2ccccc12)NC(=O)c1ccc(C)o1 [Compound 9, (S)-Methyl (5-methylfuran-2-carbonyl)tryptophanate] | slightly suppressed by DMOG treatment but not by treatment with compound 9 |

Test system: HIF-HRE transcriptional activity in SKN:HRE-MLuc cells (reflects FIH-1 inhibition)
Assay: HIF activity under hypoxia, HRE-MLuc luciferase reporter assay
Format: cell-based, human
Details: Homo sapiens; 100 μM, SKN:HRE-MLuc cells, 3% O2, 24 h; read-out: 100 μM Activity (RLU intensity at 100 μM stimulation compared with the positive control DMOG)
Procedure: To evaluate HIF transactivation following FIH-1 inhibition […], we employed a luciferase reporter assay system in the human neuroblastoma cell line SK-N-BE(2)c. […] Hereafter these HRE reporter cells were designated SKN:HRE-MLuc cells.
SKN:HRE-MLuc (4 × 10^4) were incubated for 24 h on a 96 well culture plate. The medium was replaced with complete media and the test compounds (100, 25, 6.3 and 1.6 μM). DMSO (0.1%) was used as a vehicle control, DMOG (100 μM) and FG4592 (100 μM) were used as a PHDs or FIH-1 inhibitor. The cells were incubated for 24 h under a humidified atmosphere of 5% CO2 and 3% O2 at 37 °C. After incubation, the MLuc activity in culture media was measured with luciferase substrate (Takara, Shiga, Japan) by LB960 luminometer (Berthold, Wildbad, Germany). The HIF activity was calculated as the MLuc intensity, based on the vehicle and positive controls. The lower limit dose out of 100 μM, 25 μM, 6.3 μM, 1.6 μM was listed in Table 1 and Table 2, where 25% RLU intensity was measured using DMOG as a positive control.

| SMILES | activation at 100 µM |
| --- | --- |
| COC(=O)[C@H](Cc1ccccc1)NC(=O)c1ccc(C)o1 [Compound 7, (S)-Methyl (5-methylfuran-2-carbonyl)phenylalaninate] | 22% |
| COC(=O)[C@@H](Cc1c[nH]c2ccccc12)NC(=O)c1cc(-c2ccccc2)cs1 [Compound 29, (R)-Methyl (4-phenylthiophene-2-carbonyl)tryptophanate] | 0% |
| COC(=O)[C@H](Cc1ccc(O)cc1)NC(=O)c1cc(-c2ccccc2)cs1 [Compound 30, (S)-Methyl (4-phenylthiophene-2-carbonyl)tyrosinate] | 0% |
| COC(=O)[C@H](Cc1c[nH]c2ccccc12)NC(=O)c1cc(-c2ccccc2)cs1 [Compound 28, (S)-Methyl (4-phenylthiophene-2-carbonyl)tryptophanate] | 0% |
| COC(=O)CNC(=O)c1ccc(-c2ccc(-c3ccccc3)cc2)s1 [Compound 31, Methyl (5-((1,1′-biphenyl)-4-yl)thiophene-2-carbonyl)glycinate] | 0% |
| COC(=O)CNC(=O)c1cc(-c2ccccc2)cs1 [Compound 26, Methyl (4-phenylthiophene-2-carbonyl)glycinate] | 0% |
| CCOC(=O)[C@H](Cc1ccccc1)NC(=O)c1cc(-c2ccccc2)cs1 [Compound 27, (S)-Ethyl (4-phenylthiophene-2-carbonyl)phenylalaninate] | 2% |
| COC(=O)[C@H](Cc1c[nH]c2ccccc12)NC(=O)c1cc2ccccc2o1 [Compound 38, (S)-Methyl (benzofuran-2-carbonyl)tryptophanate] | 25% |
| COC(=O)[C@H](Cc1c[nH]c2ccccc12)NC(=O)c1ccc(C)o1 [Compound 9, (S)-Methyl (5-methylfuran-2-carbonyl)tryptophanate] | 22% |

Same assay, conditions: Homo sapiens; SKN:HRE-MLuc cells, 3% O2, 24 h; doses 100, 25, 6.3, 1.6 μM; DMOG 100 μM as positive control; read-out: 25% Activity (lower dose limit showing 25% of the RLU intensity of the positive control DMOG)

| SMILES | minimal effective concentration |
| --- | --- |
| COC(=O)[C@H](Cc1ccccc1)NC(=O)c1ccc(C)o1 [Compound 7, (S)-Methyl (5-methylfuran-2-carbonyl)phenylalaninate] | 25 µM |
| COC(=O)[C@H](Cc1ccc(O)cc1)NC(=O)c1cc(-c2ccccc2)cs1 [Compound 30, (S)-Methyl (4-phenylthiophene-2-carbonyl)tyrosinate] | 6.3 µM |
| COC(=O)[C@H](Cc1c[nH]c2ccccc12)NC(=O)c1cc(-c2ccccc2)cs1 [Compound 28, (S)-Methyl (4-phenylthiophene-2-carbonyl)tryptophanate] | 25 µM |
| COC(=O)[C@H](Cc1c[nH]c2ccccc12)NC(=O)c1cc2ccccc2o1 [Compound 38, (S)-Methyl (benzofuran-2-carbonyl)tryptophanate] | 25 µM |
| COC(=O)[C@H](Cc1c[nH]c2ccccc12)NC(=O)c1ccc(C)o1 [Compound 9, (S)-Methyl (5-methylfuran-2-carbonyl)tryptophanate] | 25 µM |

Same assay, conditions: hypoxic conditions (3% O2), 24 h; reference compounds at 100 μM

| SMILES | HIF activity (HRE-MLuc reporter), result in words |
| --- | --- |
| COC(=O)[C@H](Cc1ccccc1)NC(=O)c1ccc(C)o1 [Compound 7, (S)-Methyl (5-methylfuran-2-carbonyl)phenylalaninate] | stabilized HIF and transactivated the HRE-driven MLuc reporter |
| COC(=O)[C@H](Cc1ccc(O)cc1)NC(=O)c1cc(-c2ccccc2)cs1 [Compound 30, (S)-Methyl (4-phenylthiophene-2-carbonyl)tyrosinate] | stabilized HIF and transactivated the HRE-driven MLuc reporter |
| Cc1nc(C(=O)NCC(=O)O)c(O)c2ccc(Oc3ccccc3)cc12 [FG4592, reference compound] | only slightly stabilized HIF |
| COC(=O)[C@H](Cc1c[nH]c2ccccc12)NC(=O)c1cc(-c2ccccc2)cs1 [Compound 28, (S)-Methyl (4-phenylthiophene-2-carbonyl)tryptophanate] | stabilized HIF and transactivated the HRE-driven MLuc reporter |
| COC(=O)[C@H](Cc1c[nH]c2ccccc12)NC(=O)c1cc2ccccc2o1 [Compound 38, (S)-Methyl (benzofuran-2-carbonyl)tryptophanate] | stabilized HIF and transactivated the HRE-driven MLuc reporter |
